Usually melting point stands for the temperature, or range, at which the solid turns liquid.

In turn, `CCN(C(C)=O)c1cn(-c2cccnc2)nc1Cl` yielded a melting point of 87 to 91 °C.
